Measurements from patent US12195557B2, “Optimised compounds” (AXELIA ONCOLOGY PTY LTD, priority 2017, dated 2025).
Where two headings read alike, the source gives them in different places. Residues, ends and D or L forms follow the SMILES beside them. *: point of attachment. X1 = CCCCCCCCCCCCCCCC(=O)OCC(C*)OC(=O)CCCCCCCCCCCCCCC

How the values were obtained:
human TLR2 [1] = biological target: T1, human TLR2 (Homo sapiens, UniProt O60603); experiment: NF-κB luciferase reporter assay in HEK293T cells transfected with human TLR2 plasmid; assay type: cell-based; conditions: dose range tested (12.2 pM to 3.125 pM), Example 9
T1 construct: host or cells: HEK-Blue hTLR2 (HEK293-derived) cell line
T1 sequence (O60603 21-784): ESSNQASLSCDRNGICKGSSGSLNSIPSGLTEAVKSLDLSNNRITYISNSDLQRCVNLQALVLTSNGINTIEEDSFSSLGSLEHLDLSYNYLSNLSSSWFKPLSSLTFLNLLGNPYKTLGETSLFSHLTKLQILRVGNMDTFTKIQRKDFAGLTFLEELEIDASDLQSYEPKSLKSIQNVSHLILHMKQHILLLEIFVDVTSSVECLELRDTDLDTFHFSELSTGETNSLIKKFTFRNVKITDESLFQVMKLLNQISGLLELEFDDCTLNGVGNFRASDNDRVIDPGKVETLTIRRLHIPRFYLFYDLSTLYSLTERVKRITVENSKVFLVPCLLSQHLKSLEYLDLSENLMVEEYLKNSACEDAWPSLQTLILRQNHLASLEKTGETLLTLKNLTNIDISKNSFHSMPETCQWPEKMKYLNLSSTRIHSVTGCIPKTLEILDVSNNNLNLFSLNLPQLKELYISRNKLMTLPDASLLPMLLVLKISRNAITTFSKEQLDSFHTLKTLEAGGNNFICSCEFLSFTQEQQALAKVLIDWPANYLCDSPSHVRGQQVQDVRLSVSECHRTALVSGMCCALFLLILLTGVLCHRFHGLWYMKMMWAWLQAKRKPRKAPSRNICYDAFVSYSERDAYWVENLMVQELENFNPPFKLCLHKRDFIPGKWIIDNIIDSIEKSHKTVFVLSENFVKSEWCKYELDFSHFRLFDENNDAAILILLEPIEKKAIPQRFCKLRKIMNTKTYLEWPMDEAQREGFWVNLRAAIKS
T1 sequence (Q9Y2C9 32-796 partner): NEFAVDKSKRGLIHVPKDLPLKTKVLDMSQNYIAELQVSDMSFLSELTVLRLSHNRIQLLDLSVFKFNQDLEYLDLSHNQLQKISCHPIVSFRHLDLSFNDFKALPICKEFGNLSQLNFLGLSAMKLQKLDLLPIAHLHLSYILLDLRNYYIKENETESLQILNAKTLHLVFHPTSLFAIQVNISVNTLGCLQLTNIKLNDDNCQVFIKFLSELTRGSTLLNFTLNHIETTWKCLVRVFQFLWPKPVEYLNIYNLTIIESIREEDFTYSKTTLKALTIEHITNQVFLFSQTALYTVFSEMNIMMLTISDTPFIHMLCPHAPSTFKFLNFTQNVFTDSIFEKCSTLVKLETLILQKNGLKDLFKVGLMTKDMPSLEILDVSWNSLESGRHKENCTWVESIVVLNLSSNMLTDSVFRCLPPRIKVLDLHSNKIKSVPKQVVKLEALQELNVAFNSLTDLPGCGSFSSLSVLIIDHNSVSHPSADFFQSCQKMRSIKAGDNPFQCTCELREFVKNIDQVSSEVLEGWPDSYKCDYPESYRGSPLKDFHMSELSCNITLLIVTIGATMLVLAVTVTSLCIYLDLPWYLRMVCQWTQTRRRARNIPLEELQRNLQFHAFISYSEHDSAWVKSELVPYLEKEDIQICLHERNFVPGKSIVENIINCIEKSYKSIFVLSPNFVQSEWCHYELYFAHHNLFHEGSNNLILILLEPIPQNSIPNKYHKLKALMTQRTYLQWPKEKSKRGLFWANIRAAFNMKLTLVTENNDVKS
Procedure: Comparison of the abilities of various compounds to stimulate luciferase activity in an NF-κB cell-based reporter system was determined. Compounds tested include INNA-006 (or compound (1)); INNA-013 (or compound (4)); INNA-014 (or compound (3)); INNA-015 (or compound (2)); INNA-010; INNA-011 (or compound (5)); INNA-012 (or compound (6)); and INNA-009. HEK293T cells, transiently co-transfected with a human TLR2 plasmid and a luciferase-NF-κB plasmid reporter system, were exposed to various dilutions of each compound. Successful receptor binding and subsequent signal transduction events were determined by measuring the luminescence due to luciferase activity (results shown in FIG. 11—left to right columns for each concentration are in the following order INNA-006 (or compound (1)); INNA-013 (or compound (4)); INNA-014 (or compound (3)); INNA-015 (or compound (2)); INNA-010; INNA-011 (or compound (5)); INNA-012 (or compound (6)); and INNA-009.
Comparison of the in vitro TLR2 agonistic activity of Pam3Cys-Ser-PEG3000 and INNA-006: HEK293T cells, transiently co-transfected with a human TLR2 plasmid and a luciferase-NF-κB plasmid reporter system, were exposed to various dilutions of INNA-006 or Pam3Cys-Ser-PEG3000. […]

Solubility in water = assay type: physicochemical
human TLR2 [2] = biological target: T1, human TLR2; experiment: NF-kB activation in HEKBlue-hTLR2 cell line (SEAP reporter); assay type: cell-based
Procedure: The potency of the compounds as activators of human and mouse TLR-2s was tested in an in vitro assay. The assay assesses NF-kB activation in the HEKBlue-mTLR-2 cell line. These cells have been stably transfected with mouse TLR-2 and express TLR-1 and TLR-6 endogenously at sufficient levels to allow for fully-functional TLR-1/2 and TLR-2/6 activation.
(§1) Toll-Like Receptor 2 (TLR2) stimulation is tested by assessing NF-kB activation in the HEKBlue-hTLR2 cell line. These cells have been stably transfected with human TLR2 and express TLR1 and TLR6 endogenously at a level sufficient to allow for fully-functional TLR1/2 and TLR2/6 activation. The activity of the test articles are tested on human TLR2 as potential agonists. The test articles are evaluated at seven concentrations and compared to control ligands. These steps are performed in triplicate.
as §1, with “stimulation was” for “stimulation is”, “assessing N-kB” for “assessing NF-kB”, “the HEK-Blue hTLR2” for “the HEKBlue-hTLR2”, “articles were” for “articles are”, “control ligands (see list below).” for “control ligands.”, “steps were” for “steps are”
The secreted embryonic alkaline phosphatase (SEAP) reporter is under the control of a promoter inducible by the transcription factor NF-κB. This reporter gene allows the monitoring of signaling through the TLR, based on the activation of NF-κB. In a 96-well plate (200 μL total volume) containing the appropriate cells (50,000-75,000 cells/well), 20 μL of the test article or the positive control ligand is added to the wells. The media added to the wells is designed for the detection of NF-κB induced SEAP expression. After a 20 hour incubation the optical density (OD) is read at 650 nm on a Molecular Devices SpectraMax 340PC absorbance detector.

[3] = test system: A/Udorn/307/72 (H3N2) influenza virus; assay type: in vivo, C57BL/6 mice; conditions: n=5, day 5 (Example 4)
[4] = dog plasma, 37° C., 4 h time course
[5] = human plasma, 37° C., 4 h time course
in vitro [6] = conditions: rat, plasma
in vitro [7] = conditions: rat, hepatocytes
in vitro [8] = conditions: dog, hepatocytes
in vitro [9] = conditions: cynomolgus monkey, hepatocytes
in vitro [10] = conditions: human, hepatocytes

In the case of Pam3Cys-Ser-PEG3000, the “ability to signal NF-κB compared with INNA-006” value (human TLR2 [1]) is reported as “inferior to INNA-006” and the solubility in water (Solubility in water) is reported as “readily soluble in water”.

With CCCCCCCCCCCCCCCC(=O)OCC(CSCC(N)C(=O)NC(CO)C(=O)NC(CCCCN)C(=O)NC(CCCCN)C(=O)NC(CCCCN)C(=O)NC(CCCCN)C(=O)O)OC(=O)CCCCCCCCCCCCCCC (stereo not drawn) [INNA-005, Pam2Cys—Ser—Lys—Lys—Lys—Lys, reference compound] (H-C(X1)SKKKK-OH; configuration not given here) the “TLR2 activation, potency in words” value (human TLR2 [2]; Example 2) was “activated human TLR2”, the EC50 (human TLR2 [2]; agonist activity against Human TLR-2 in vitro) was 3.7 pM and the “progression of influenza virus to the lungs (lung viral titre)” value (from here on “progression of influenza virus”) ([3]; 0.005 nmoles intranasal 1 day prior to 500 pfu Udorn challenge) was “partial inhibition”. For the same molecule, the “progression of influenza virus” value ([3]; 0.1 nmoles intranasal 1 day prior to 500 pfu Udorn challenge) was “partial inhibition” and the “progression of influenza virus” value ([3]; 5 nmoles intranasal 1 day prior to 500 pfu Udorn challenge) was “partial inhibition”.

For CCCCCCCCCCCCCCCC(=O)OCC(CSC[C@H](N)C(=O)N[C@@H](CO)C(=O)NCCOCCOCCOCCOCCOCCOCCOCCOCCOCCOCCOCCOCCOCCOCCOCCOCCOCCOCCOCCOCCOCCOCCOCCOCCOCCOCCOCCOCCC(=O)NCC(N)=O)OC(=O)CCCCCCCCCCCCCCC (stereo partly drawn) [INNA-011], the plasma half-life [4] was “could not be calculated due to insufficient degradation”, the plasma half-life [5] was “could not be calculated due to insufficient degradation” and the half-life (in vitro [6]) was 5.9 h. The half-life at 0.5 μM (in vitro [7]) was greater than 6.25 h, the hepatocyte CLint at 0.5 μM (in vitro [7]) was no more than 2 µL/min/1e6 cells and the half-life at 0.5 μM (in vitro [8]) was 4.73 h. For the same molecule, the hepatocyte CLint at 0.5 μM (in vitro [8]) was no more than 2 µL/min/1e6 cells, the half-life at 0.5 μM (in vitro [9]) was 2.88 h and the hepatocyte CLint at 0.5 μM (in vitro [9]) was no more than 2 µL/min/1e6 cells. For the same molecule, the half-life at 0.5 μM (in vitro [10]) was 5.47 h and the hepatocyte CLint at 0.5 μM (in vitro [10]) was no more than 2 µL/min/1e6 cells.
